Laboratory results taken from patent US20050197338A1, “Substituted pyrazole urea compounds for the treatment of inflammation” (priority 2003, published 2005).

Biological target: T1, Rat IKK-2 (Rattus norvegicus, UniProt Q9QY78)
T1 sequence (Q9QY78 1-757): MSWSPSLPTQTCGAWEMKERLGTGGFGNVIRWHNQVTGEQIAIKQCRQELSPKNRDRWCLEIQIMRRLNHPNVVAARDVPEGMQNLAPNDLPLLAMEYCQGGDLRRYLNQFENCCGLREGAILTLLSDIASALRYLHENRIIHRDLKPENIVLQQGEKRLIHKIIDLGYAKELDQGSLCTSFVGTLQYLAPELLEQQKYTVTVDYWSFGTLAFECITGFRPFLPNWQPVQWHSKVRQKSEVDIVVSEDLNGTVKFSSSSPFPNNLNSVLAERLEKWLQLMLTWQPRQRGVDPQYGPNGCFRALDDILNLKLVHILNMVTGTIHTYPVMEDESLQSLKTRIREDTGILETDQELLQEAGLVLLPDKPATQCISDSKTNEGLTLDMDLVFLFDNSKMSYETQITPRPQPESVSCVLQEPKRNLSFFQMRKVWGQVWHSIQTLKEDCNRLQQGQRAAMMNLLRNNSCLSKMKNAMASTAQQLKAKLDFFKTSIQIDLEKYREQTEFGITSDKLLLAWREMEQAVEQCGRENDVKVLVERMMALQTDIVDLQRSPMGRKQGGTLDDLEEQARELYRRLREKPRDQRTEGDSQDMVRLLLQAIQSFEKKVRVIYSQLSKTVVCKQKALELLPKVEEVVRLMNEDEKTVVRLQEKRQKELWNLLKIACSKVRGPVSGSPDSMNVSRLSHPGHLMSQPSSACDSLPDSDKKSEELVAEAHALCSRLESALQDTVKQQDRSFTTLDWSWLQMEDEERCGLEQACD
Experiment: Rat IKK-2 enzyme assay
Assay type: biochemical
Conditions: read-out: IC50 (μM) rIKK-2
Protocol: Kinase activity was measured using a biotinylated […] peptide (Gly-Leu-Lys-Lys-Glu-Arg-Leu-Leu-Asp-Asp-Arg-His-Asp-Ser32-Gly-Leu-Asp-Ser36-Met-Lys-Asp-Glu-Glu) (American Peptide Co.). 20 μL of the standard reaction mixture contained 5 μM biotinylated IκBα peptide, 0.1 μCi/reaction [γ-^33P] ATP (Amersham) (about 1×10^5 cpm), 1 μM ATP (Sigma), 1 mM DTT (Sigma), 2 mM MgCl2 (Sigma), 2 mM MnCl2 (Sigma), 10 mM NaF (Sigma), 25 mM Hepes (Sigma) buffer, pH. 7.6 and 20 μL enzyme solution (50 nM/rxn or 200 ng/rxn) and 10 μL inhibitor in a final volume of 50 μL. After incubation at 25° C. for 60 min, 150 μL resin was added to each well to stop the reaction. Resin was mixed and allowed to settle for 1 h and 50 μL of supernatant was removed to a Micolite 2 flat bottom plate (Dynex). 150 μL of scintillation fluid (Microscint 40) (Packard) was added to each well. Incorporation of [γ-^33P] ATP was measured using a Top-Count NXT (Packard).

First: Cc1cc(-n2cc(NC(N)=O)c(C(N)=O)n2)ccc1-c1ccc(O)cc1 [Example 308, 1-(4′-hydroxy-2-methyl-biphenyl-4-yl)-4-ureido-1H-pyrazole-3-carboxylic acid amide]
Second: Cc1cc(-n2cc(NC(N)=O)c(C(N)=O)n2)ccc1OCc1ccccc1 [Example 307, 4-[(aminocarbonyl)amino]-1-[4-(benzyloxy)-3-methylphenyl]-1H-pyrazole-3-carboxamide]
The IC50 of the first is 65-fold lower: 0.099 µM for the first, 6.44 µM for the second.

Work on `NC(=O)Nc1cn(-c2ccc([S+]([O-])c3ccncc3)cc2)nc1C(N)=O` (stereo not drawn) [Example 294, 1-(3-carbamoyl-1-(4-(pyridin-4-ylsulfinyl)phenyl)-1H-pyrazol-4-yl)urea] yielded an IC50 of 0.237 µM.
